Patent US5599953A, “C-glycoside analogues of N-(4-hydroxyphenyl)retinamide-O-glucuronide” (The Ohio State Research Foundation, priority 1995, dated 1997)
“Also recorded” adds a separate entry of the source. Where two headings read alike, the source gives them in different places.

Assays:
[1] = target: T1, human retinoic acid receptor γ (Homo sapiens, UniProt P13631); assay: Competition binding / retinoic acid binding, human retinoic acid receptor γ/BCV (FIG. 1)
T1 construct: made in house
T1 sequence (P13631 1-454): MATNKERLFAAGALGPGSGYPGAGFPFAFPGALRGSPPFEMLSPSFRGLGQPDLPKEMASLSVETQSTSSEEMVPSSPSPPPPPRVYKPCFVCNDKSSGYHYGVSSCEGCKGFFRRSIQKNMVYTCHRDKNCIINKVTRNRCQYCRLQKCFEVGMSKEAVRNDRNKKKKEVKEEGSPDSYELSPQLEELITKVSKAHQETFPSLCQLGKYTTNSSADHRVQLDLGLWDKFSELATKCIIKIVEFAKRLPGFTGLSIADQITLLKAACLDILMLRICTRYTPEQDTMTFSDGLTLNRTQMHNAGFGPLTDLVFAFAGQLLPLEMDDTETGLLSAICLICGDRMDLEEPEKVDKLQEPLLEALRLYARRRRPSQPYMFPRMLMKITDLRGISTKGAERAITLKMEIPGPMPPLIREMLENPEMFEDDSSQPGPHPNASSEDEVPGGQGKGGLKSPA

[2] = test system: DMBA-Induced Rat Mammary Tumors; assay: Effect on progression of DMBA-induced rat mammary tumors; assay type: in vivo; details: 1 mmol/Kg in diet
Source text: The control rats received DMBA intubation only and AIN-76A rat chow.

MCF-7 cells = assay: Growth inhibition of MCF-7 human mammary tumor cells; assay type: cell-based; details: for IC50: Homo sapiens, MCF7, 168 h, 7 days, read-out: ED50 for growth inhibition of MCF-7 cells; for growth inhibition of MCF-7 cells, in words: comparison of drugs
Method: The antiproliferative activity of the drugs in MCF-7 human mammary tumor cell culture models were determined.
The MCF-7 cells were obtained originally from the Michigan Cancer Foundation. The cells were routinely grown as monolayers in T-25 plastic tissue culture flasks from Falcon, in Oxnard, Calif. containing 5.0 mL of B-10 medium consisting of Minimum Essential Medium (MEM, Earle's Base) supplemented with 1.0 mM MEM non-essential amino acid, 2.0 mM 1-glutamine,10% fetal bovine serum (FBS), and antibiotics. Culture conditions included a humidified atmosphere of 5% CO2 at 37° C. One-half of the medium was replenished twice a week. Cells were harvested by trypsinization upon confluency. All variables were evaluated in triplicate.
For the growth inhibition assay the MCF-7 cells were plated in 24-well plates at a density of 1.5×10^4 cells/cm^2. […] Control cultures were treated with an equivalent volume of absolute ethanol. On day 7 the cells were harvested by trypsinization and viability was assessed by trypan blue exclusion according to Ueda, H. et al. Cancer 1980, 46, 2203-2209. Total cell counts were obtained using a hemocytometer as well as a the Coulter Counter.

[3] = test system: retinoic acid receptors α, β and γ; assay: Competition with retinoic acid for retinoic acid receptors (RAR α, β, γ), overall; assay type: binding; details: 1 μM drug
mRARα = target: T2, mRARα (Mus musculus, UniProt P11416); assay: Drug competition with (3H)retinoic acid binding, mRARα; details: read-out: percent reduction of binding of the (3H)retinoic acid, mRARα
T2 construct: made in house; host or cells: Spodoptera frugiperda insect cells, baculovirus (whole cell extract)
T2 sequence (P11416 1-462): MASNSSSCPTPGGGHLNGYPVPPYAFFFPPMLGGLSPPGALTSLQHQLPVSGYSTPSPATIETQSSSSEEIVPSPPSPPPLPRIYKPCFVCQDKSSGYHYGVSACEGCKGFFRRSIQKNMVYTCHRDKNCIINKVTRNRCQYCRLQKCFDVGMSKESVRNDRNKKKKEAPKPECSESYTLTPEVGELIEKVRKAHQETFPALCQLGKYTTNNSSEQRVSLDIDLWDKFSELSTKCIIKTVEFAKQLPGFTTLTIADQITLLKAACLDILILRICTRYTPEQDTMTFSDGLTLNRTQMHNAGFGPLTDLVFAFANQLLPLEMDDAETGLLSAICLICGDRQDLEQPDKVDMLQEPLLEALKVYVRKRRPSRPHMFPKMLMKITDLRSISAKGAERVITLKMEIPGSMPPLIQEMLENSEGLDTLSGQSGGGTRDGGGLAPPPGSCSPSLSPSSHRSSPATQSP

mRARγ = target: T3, mRARγ (Mus musculus, UniProt P18911); assay: Drug competition with (3H)retinoic acid binding, mRARγ; details: read-out: percent reduction of binding of the (3H)retinoic acid, mRARγ; 1 μM drug; 5 nM [3H]RA
T3 construct: made in house; host or cells: Spodoptera frugiperda insect cells, baculovirus (whole cell extract)
T3 sequence (P18911 1-458): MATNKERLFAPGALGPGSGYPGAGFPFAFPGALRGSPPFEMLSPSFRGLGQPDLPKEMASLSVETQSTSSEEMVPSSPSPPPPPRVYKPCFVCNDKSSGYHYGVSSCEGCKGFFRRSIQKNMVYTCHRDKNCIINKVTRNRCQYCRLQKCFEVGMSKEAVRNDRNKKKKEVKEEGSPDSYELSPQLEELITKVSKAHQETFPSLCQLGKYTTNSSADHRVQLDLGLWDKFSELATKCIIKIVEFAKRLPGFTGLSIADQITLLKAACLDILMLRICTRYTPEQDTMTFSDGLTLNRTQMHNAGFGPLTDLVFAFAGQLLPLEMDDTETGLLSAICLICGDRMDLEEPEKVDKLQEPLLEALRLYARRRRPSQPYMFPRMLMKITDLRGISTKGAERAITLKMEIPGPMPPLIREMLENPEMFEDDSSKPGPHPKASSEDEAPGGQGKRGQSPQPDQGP

mRARβ = target: T4, mRARβ (Mus musculus, UniProt P22605); assay: Drug competition with (3H)retinoic acid binding, mRARβ; details: read-out: percent reduction of binding of the (3H)retinoic acid, mRARβ; 1 μM drug; 5 nM [3H]RA
T4 construct: made in house; host or cells: Spodoptera frugiperda insect cells, baculovirus (whole cell extract)
T4 sequence (P22605 1-448 isoform P22605-3): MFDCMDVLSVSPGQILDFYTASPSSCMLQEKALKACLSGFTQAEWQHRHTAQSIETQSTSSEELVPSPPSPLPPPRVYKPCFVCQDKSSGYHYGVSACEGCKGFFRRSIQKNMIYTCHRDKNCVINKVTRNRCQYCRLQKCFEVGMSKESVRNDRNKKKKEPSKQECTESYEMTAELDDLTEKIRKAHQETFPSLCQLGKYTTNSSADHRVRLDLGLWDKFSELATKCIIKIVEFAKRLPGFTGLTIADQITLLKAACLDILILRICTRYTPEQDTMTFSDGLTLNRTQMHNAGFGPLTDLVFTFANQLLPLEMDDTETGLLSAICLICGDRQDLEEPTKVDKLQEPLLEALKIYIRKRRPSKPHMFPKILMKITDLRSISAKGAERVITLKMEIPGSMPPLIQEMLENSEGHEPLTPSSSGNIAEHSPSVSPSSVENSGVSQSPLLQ

[4] = Acid stability, 0.1N methanolic HCl at 37° C. for 2 hours; assay type: physicochemical
Method: To determine the stability of the C-glucopyranosiduronate linkage towards acidic conditions, samples of 4-HPR-O-glucuronide, 4-(retinamido)phenyl-C-glucuronide and 4-(retinamido)benzyl-C-glucuronide were treated with 0.1N methanolic HCl at 37° C. for 2 hours.

β-glucuronidase [5] = target: T5, β-glucuronidase (Homo sapiens, UniProt P08236); assay: Inhibition of β-glucuronidase mediated hydrolysis of 4-HPR-O-glucuronide; assay type: biochemical; details: for IC50: 10% methanol as co-solvent, 4-HPR-O-glucuronide below 184.5 μM
T5 sequence (P08236 23-651): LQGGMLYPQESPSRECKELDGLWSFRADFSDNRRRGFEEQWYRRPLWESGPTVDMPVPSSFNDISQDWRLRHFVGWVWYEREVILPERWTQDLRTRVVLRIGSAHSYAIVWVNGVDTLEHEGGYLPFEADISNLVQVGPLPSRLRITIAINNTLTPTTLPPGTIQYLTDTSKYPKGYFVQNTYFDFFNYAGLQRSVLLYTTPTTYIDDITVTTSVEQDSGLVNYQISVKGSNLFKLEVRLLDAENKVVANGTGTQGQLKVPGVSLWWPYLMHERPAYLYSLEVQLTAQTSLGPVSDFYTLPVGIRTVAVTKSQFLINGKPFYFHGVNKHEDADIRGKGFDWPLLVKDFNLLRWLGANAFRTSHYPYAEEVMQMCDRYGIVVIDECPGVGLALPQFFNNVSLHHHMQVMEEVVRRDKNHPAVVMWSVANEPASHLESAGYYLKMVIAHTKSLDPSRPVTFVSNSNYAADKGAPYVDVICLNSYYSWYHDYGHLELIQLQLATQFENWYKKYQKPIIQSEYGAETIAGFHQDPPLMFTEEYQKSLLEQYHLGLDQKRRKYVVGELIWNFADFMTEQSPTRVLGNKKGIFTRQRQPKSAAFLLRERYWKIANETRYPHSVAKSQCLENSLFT
Source text: Chem. Soc., (1954), 76, 4872-4877.

cancer = details: literature; cited from earlier work
[6] = Acid stability, 0.1N HCl at 37° C. for two hours; assay type: physicochemical; details: HPLC
Method: Similarly, 1-(D-glucopyranosyluronosyl) retinamide and RAG were treated with 0.1N HCl at 37° C. for two hours.

β-glucuronidase [7] = target: T5, β-glucuronidase; assay: Stability toward β-glucuronidase mediated hydrolysis; assay type: in vitro ADME; details: within twenty minutes
Method: Similarly 1-(D-glucopyranosyluronosyl) retinamide and RAG were evaluated for their stability toward β-glucuronidase medicated hydrolysis under the same conditions as described above.

## CC1=C(/C=C/C(C)=C/C=C/C(C)=C/C(=O)N[C@@H]2O[C@H](CO)[C@@H](O)[C@H](O)[C@H]2O)C(C)(C)CCC1 [1-(B-D-glucopyranosyl) retinamide, 1-(β-D-glucopyranosyl) retinamide]
[1]; 1.3 nM [3H]-retinoic acid
  Ki: 0.71 µM
[1]; vs retinoic acid, FIG. 1
  fold less effective than retinoic acid in competing for [3H]-retinoic acid binding to retinoic acid receptor γ: 1500 fold
[2]
  effect on DMBA-induced mammary tumor development, in words: significantly prolonged the latency period of mammary cancer; also recorded: tumor induction was markedly delayed and reduced; also recorded: greater mammary tumor chemopreventive effect than does retinoic acid; also recorded: inhibit DMBA induced mammary tumor development
[2]; 15 mg DMBA oral
  tumor latency: 64 days
[2]; 110 days post intubation
  tumor incidents: 58%
  tumor number/rat: 0.92 tumors per rat

## CC1=C(/C=C/C(C)=C/C=C/C(C)=C/C(=O)Nc2ccc(C[C@@H]3O[C@H](CO)[C@@H](O)[C@H](O)[C@H]3O)cc2)C(C)(C)CCC1 [4-(retinamido)benzyl-C-glucoside]
MCF-7 cells; Assay 1
  IC50: 3.4 µM
MCF-7 cells
  growth inhibition of MCF-7 cells, in words: exhibit the best growth inhibition of the cells
[3]
  competition with retinoic acid for the receptors, in words: significantly compete with retinoic acid for the receptors
mRARα; 1 μM drug, 5 nM [3H]RA
  inhibition at 1 µM: 56%
mRARγ
  inhibition at 1 µM: 77%
mRARβ
  inhibition at 1 µM: 64%

## CC1=C(/C=C/C(C)=C/C=C/C(C)=C/C(=O)Nc2ccc(C[C@@H]3O[C@H](C(=O)O)[C@@H](O)[C@H](O)[C@H]3O)cc2)C(C)(C)CCC1 [4-(retinamido)benzyl-C-glucuronide]
MCF-7 cells; Assay 1
  IC50: 6.5 µM
MCF-7 cells
  growth inhibition of MCF-7 cells, in words: exhibit the best growth inhibition of the cells
[4]
  acid hydrolysis (stability): remained essentially intact
[3]
  competition with retinoic acid for the receptors, in words: significantly compete with retinoic acid for the receptors
mRARα; 1 μM drug, 5 nM [3H]RA
  inhibition at 1 µM: 67%
β-glucuronidase [5]
  inhibition of β-glucuronidase mediated hydrolysis, in words: slightly more effective than the 4-(retinamido)phenyl-C-glucuronide
  IC50: 236 µM
mRARγ
  inhibition at 1 µM: 78%
mRARβ
  inhibition at 1 µM: 82%

## CC(=O)OC/C=C(C)/C=C/C=C(C)/C=C/C1=C(C)CCCC1(C)C [retinyl acetate]
cancer
  cancer preventive activity: display cancer preventive activity

## CC1=C(/C=C/C(C)=C/C=C/C(C)=C/C(=O)O[C@@H]2O[C@H](C(=O)O)[C@@H](O)[C@H](O)[C@H]2O)C(C)(C)CCC1 [RAG, retinoyl β-glucuronide, reference compound]
[6]
  degraded at 2 h: ~50%
β-glucuronidase [7]
  hydrolysis by β-glucuronidase within twenty minutes: completely hydrolyzed

## CC1=C(/C=C/C(C)=C/C=C/C(C)=C/C(=O)Nc2ccc([C@@H]3O[C@H](C(=O)O)[C@@H](O)[C@H](O)[C@H]3O)cc2)C(C)(C)CCC1 [4-(retinamido)phenyl-C-glucuronide]
MCF-7 cells; Assay 3
  IC50: 50 µM
MCF-7 cells
  growth inhibition of MCF-7 cells, in words: potency consistent with its glucoside analogue
[4]
  acid hydrolysis (stability): remained essentially intact
[3]
  competition with retinoic acid for the receptors, in words: significantly compete with retinoic acid for the receptors
mRARα; 1 μM drug, 5 nM [3H]RA
  inhibition at 1 µM: 48%
β-glucuronidase [5]
  inhibition of β-glucuronidase mediated hydrolysis, in words: act as inhibitors of β-glucuronidase mediated hydrolysis
  IC50: 267 µM
mRARγ
  inhibition at 1 µM: 40%
mRARβ
  inhibition at 1 µM: 47%

## CC1=C(/C=C/C(C)=C/C=C/C(C)=C/C(=O)Nc2ccc(C[C@@H]3OC[C@@H](O)[C@H](O)[C@H]3O)cc2)C(C)(C)CCC1 [4-(retinamido)benzyl-C-xyloside]
MCF-7 cells; Assay 2
  IC50: 15 µM
mRARα; 1 μM drug, 5 nM [3H]RA
  inhibition at 1 µM: 12%
mRARγ
  inhibition at 1 µM: 2%
mRARβ
  inhibition at 1 µM: 3%

## CC1=C(/C=C/C(C)=C/C=C/C(C)=C/C(=O)Nc2ccc([C@@H]3O[C@H](CO)[C@@H](O)[C@H](O)[C@H]3O)cc2)C(C)(C)CCC1 [4-(retinamido)phenyl-C-glucoside]
MCF-7 cells; Assay 2
  IC50: 27 µM

## CC1=C(/C=C/C(C)=C/C=C/C(C)=C\C(=O)O)C(C)(C)CCC1 [13-cis-retinoic acid, reference compound]
cancer
  cancer preventive activity: display cancer preventive activity
mRARα
  inhibition at 1 µM: 28%
mRARγ
  inhibition at 1 µM: 4%
